Measurements from patent US20090143279A1 (priority 2007, published 2009).
Where two headings read alike, the source gives them in different places. Where a SMILES comes first, the peptide text is derived from it. Bridges are numbered along the chain shown (N, C = ends). [ ]: non-standard residue; d: D form. The star is where a group is joined. Ileψ(thiazoline)Cys = CC[C@H](C)[C@H](N)C1=N[C@H](C(=O)*)CS1; dOrn = NCCC[C@@H](N)C(=O)O

How the values were obtained:
mtOXPHOS transcripts = assay type: cell-based, mouse
reactive oxygen species = assay type: cell-based, mouse
[1] = system: cellular dehydrogenase activity
[2] = system: mitochondrial membrane potential; assay type: cell-based, mouse
cytochrome c = assay type: cell-based, mouse
nuOXPHOS transcripts = assay type: cell-based, mouse
OXPHOS gene expression = assay type: cell-based, mouse
[3] = composite Z-score vs DMSO, Conc 20 μM
[4] = 20 μM, composite Z-score vs DMSO
[5] = composite Z-score vs mock-treated (DMSO) wells, concentration of each compound in μM
[6] = Conc 20 μM, normalized score vs mock-treated (DMSO) wells
[7] = normalized composite Z-score vs mock-treated (DMSO) wells, Conc 20 μM
[8] = Table 4, C2C12 myotubes, 48 h, composite Z-score
[9] = Table 4, C2C12 myotubes, 48 h, JC-1, composite Z-score
[10] = composite Z-score vs DMSO wells, Conc 20 μM

Compound `C/C=C(\C)C(=O)O[C@H]1C[C@@H](OC(C)=O)[C@@]2(C(=O)OC)CO[C@H]3[C@@H](O)[C@@](C)([C@]45O[C@@]4(C)[C@H]4C[C@@H]5O[C@@H]5OC=C[C@@]54O)[C@H]4[C@]1(CO[C@]4(O)C(=O)OC)[C@@H]32` [azadirachtin] has a mitoOX (mtOXPHOS transcripts; [3]) of 0.042, an ROS (reactive oxygen species; [3]) of 0.494 and a Viability (C2C12 myotubes; [3]) of −0.479. For the same compound, the MTT [1, 3] was −1.018, the ΔΨm [2, 3] was −0.670 and the cyt c (cytochrome c; [3]) was −0.421. For the same compound, the nucOX (nuOXPHOS transcripts; [3]) was 0.152 and the GE-HTS (OXPHOS gene expression; [3]) was 0.119.

Compound `CC[C@H](C)[C@H](N)C1=N[C@H](C(=O)N[C@@H](CC(C)C)C(=O)N[C@H](CCC(=O)O)C(=O)N[C@H](C(=O)N[C@H]2CCCCNC(=O)[C@H](CC(N)=O)NC(=O)[C@@H](CC(=O)O)NC(=O)[C@H](Cc3cnc[nH]3)NC(=O)[C@@H](Cc3ccccc3)NC(=O)[C@H]([C@@H](C)CC)NC(=O)[C@@H](CCCN)NC2=O)[C@@H](C)CC)CS1` [bacitracin] ({Ileψ(thiazoline)Cys}-L[dE]IK[dOrn]I[dF]H[dD]N; lactam 4-C) has a mitoOX (mtOXPHOS transcripts; [4]) of 0.798, a mitoOX (mtOXPHOS transcripts; [5]) of −0.189 and an ROS (reactive oxygen species; [4]) of 1.177. For the same compound, the ROS (reactive oxygen species; [5]) was 0.105, the Viability (C2C12 myotubes; [4]) was −0.312 and the Viability (C2C12 myotubes; [5]) was −0.938. For the same compound, the MTT [1, 4] was −0.826, the MTT [1, 5] was −0.310 and the ΔΨm [2, 4] was −0.113. It also gave a ΔΨm [2, 5] of −0.214, a cyt c (cytochrome c; [4]) of 0.305 and a cyt c (cytochrome c; [5]) of −0.806. For the same compound, the nucOX (nuOXPHOS transcripts; [4]) was 1.374, the nucOX (nuOXPHOS transcripts; [5]) was −0.736 and the GE-HTS (OXPHOS gene expression; [4]) was 1.271. The GE-HTS (OXPHOS gene expression; [5]) was −0.592.

In the case of `COc1cc2c3cc1Oc1cc(ccc1O)CC1c4c(cc(OC)c(O)c4Oc4ccc(cc4)CC3N(C)CC2)CCN1C` (stereo not drawn) [bebeerine], the “mitoOX (composite Z-score)” value (mtOXPHOS transcripts; [6]) was 0.119, the “ROS (composite Z-score)” value (reactive oxygen species; [6]) was 0.759 and the “Viability (composite Z-score)” value (C2C12 myotubes; [6]) was −0.728. For the same compound, the “MTT (composite Z-score)” value [1, 6] was −1.681, the “ΔΨm (composite Z-score)” value [2, 6] was −0.800 and the “cyt c (composite Z-score)” value (cytochrome c; [6]) was 0.389. For the same compound, the “nucOX (composite Z-score)” value (nuOXPHOS transcripts; [6]) was −0.028 and the “GE-HTS (composite Z-score)” value (OXPHOS gene expression; [6]) was −0.005.

For `COc1cc2c3cc1Oc1c(OC)c(OC)cc4c1[C@@H](Cc1ccc(O)c(c1)Oc1ccc(cc1)C[C@@H]3N(C)CC2)N(C)CC4` [berbamine], the mitoOX (mtOXPHOS transcripts; [3]) was −0.636, the ROS (reactive oxygen species; [3]) was 0.153 and the Viability (C2C12 myotubes; [3]) was −1.126. For the same compound, the MTT [1, 3] was −1.021, the ΔΨm [2, 3] was −0.289 and the cyt c (cytochrome c; [3]) was 0.445. The nucOX (nuOXPHOS transcripts; [3]) was −0.166 and the GE-HTS (OXPHOS gene expression; [3]) was −0.345.

`CC12CCCC(O)(C1)C1CC(C)(C)C1CC2` (stereo not drawn) [beta-caryophyllene alcohol] was tested, and the mitoOX (mtOXPHOS transcripts; [7]) was 0.264, the ROS (reactive oxygen species; [7]) was 1.180 and the Viability (C2C12 myotubes; [7]) was −0.960. The MTT [1, 7] was −1.859, the ΔΨm [2, 7] was −0.433 and the cyt c (cytochrome c; [7]) was −1.030. For the same compound, the nucOX (nuOXPHOS transcripts; [7]) was 0.105 and the GE-HTS (OXPHOS gene expression; [7]) was 0.155.

For `COc1cc2c(cc1OC)[C@@H]1C(=O)c3ccc4c(c3O[C@@H]1CO2)CC(C(C)C)O4` (stereo partly drawn) [beta-dihydrorotenone, reference compound], the mitoOX (mtOXPHOS transcripts; [3]) was −0.695, the ROS (reactive oxygen species; [8]) was 0.122 and the ROS (reactive oxygen species; [3]) was 0.122. For the same compound, the Viability (C2C12 myotubes; [8]) was −0.184, the Viability (C2C12 myotubes; [3]) was −0.184 and the MTT [1, 8] was −2.771. It also gave an MTT [1, 3] of −2.771, a ΔΨm [2, 9] of 1.079 and a ΔΨm [2, 3] of 1.079. The cyt c (cytochrome c; [3]) was −0.408, the nucOX (nuOXPHOS transcripts; [3]) was −0.828 and the GE-HTS (OXPHOS gene expression; [3]) was −0.818.

In the case of `COc1cc2c(cc1OC)C1C(=O)c3c(cc4c(c3O)C=CC(C)(C)O4)OC1CO2` (stereo not drawn) [beta-toxicarol, reference compound], the mitoOX (mtOXPHOS transcripts; [7]) was −0.627, the ROS (reactive oxygen species; [8]) was −0.188 and the ROS (reactive oxygen species; [7]) was −0.188. It also gave a Viability (C2C12 myotubes; [8]) of 0.672, a Viability (C2C12 myotubes; [7]) of 0.672 and an MTT [1, 8] of −1.498. It also gave an MTT [1, 7] of −1.498, a ΔΨm [2, 9] of 0.899 and a ΔΨm [2, 7] of 0.899. The cyt c (cytochrome c; [7]) was −0.239, the nucOX (nuOXPHOS transcripts; [7]) was −1.773 and the GE-HTS (OXPHOS gene expression; [7]) was −1.508.

`CNCCc1ccccn1` [betahistine] gave a mitoOX (mtOXPHOS transcripts; [10]) of −0.718, an ROS (reactive oxygen species; [10]) of −0.176 and a Viability (C2C12 myotubes; [10]) of 1.068. For the same compound, the MTT [1, 10] was 0.861, the ΔΨm [2, 10] was 0.125 and the cyt c (cytochrome c) was 0.296. The cyt c (cytochrome c; [10]) was 0.386, the nucOX (nuOXPHOS transcripts; [10]) was −0.008 and the GE-HTS (OXPHOS gene expression; [10]) was −0.284.

In the case of `C[N+](C)(C)CC(=O)O` [betaine], the mitoOX (mtOXPHOS transcripts) was 0.604, the ROS (reactive oxygen species) was −0.348 and the Viability (C2C12 myotubes) was 0.548. The MTT [1] was 1.036, the ΔΨm [2] was 0.345 and the cyt c (cytochrome c) was −0.998. It also gave a nucOX (nuOXPHOS transcripts) of 0.354 and a GE-HTS (OXPHOS gene expression) of 0.478.

For `C[C@H]1C[C@H]2[C@@H]3CCC4=CC(=O)C=C[C@]4(C)[C@@]3(F)[C@@H](O)C[C@]2(C)[C@@]1(O)C(=O)CO` [betamethasone], the “mitoOX (composite Z-score)” value (mtOXPHOS transcripts) was 0.853, the “ROS (composite Z-score)” value (reactive oxygen species) was 0.541 and the “Viability (composite Z-score)” value (C2C12 myotubes) was −0.984. For the same compound, the “MTT (composite Z-score)” value [1] was −1.063, the “ΔΨm (composite Z-score)” value [2] was 0.849 and the “cyt c (composite Z-score)” value (cytochrome c) was 0.130. The “nucOX (composite Z-score)” value (nuOXPHOS transcripts) was 0.633 and the “GE-HTS (composite Z-score)” value (OXPHOS gene expression) was 0.740.

In the case of `C=C(C)[C@@H]1CC[C@]2(C(=O)O)CC[C@]3(C)[C@H](CC[C@@H]4[C@@]5(C)CC[C@H](O)C(C)(C)[C@@H]5CC[C@]43C)[C@@H]12` [betulinic acid], the mitoOX (mtOXPHOS transcripts; [3]) was 0.259, the ROS (reactive oxygen species; [3]) was 0.202 and the Viability (C2C12 myotubes; [3]) was 0.850. It also gave an MTT [1, 3] of −2.381, a ΔΨm [2, 3] of −1.220 and a cyt c (cytochrome c; [3]) of 0.481. For the same compound, the nucOX (nuOXPHOS transcripts; [3]) was 0.069 and the GE-HTS (OXPHOS gene expression; [3]) was 0.145.
